A short description of series [1]: Dissolution/dispersion in water and organic solvents, Tyndall effect. Format: physicochemical.
The next series has as its system Neuroma blast cells N2a. Nature of the series: Cytotoxicity test (MTT method). Format: cell-based. Particulars: 24 hours after drug addition. The protocol: A group of Neuroma blast cells N2a that are cultured in a blank medium without hydrophobic drugs (i.e., the curcumin analog M1) defines a negative control group, and a rate of cell viability of the Neuroma blast cells N2a in the negative control group is calculated as 100%. FIG. 8 illustrates the results.

The values that follow come from US20220000804A1, “INTRANASAL NANO INDUCER FOR PREVENTING AND TREATING NEURODEGENERATIVE DISEASES AND METHOD THEREOF” (Nasal-Phyto (SZ) Pharmaceutical Technology Co., Ltd., priority 2019, published 2022).

Take `COc1ccccc1/C=C/C(=O)/C=C/c1ccccc1OC` [curcumin analog M1]: the solubility in tetrahydrofuran entry in series [1] (tetrahydrofuran) is reported as “soluble in tetrahydrofuran”. In addition, the “dissolution / dispersion in water” value in series [1] (water) is “difficultly dissolved in water”. Also, in the series on Neuroma blast cells N2a, the “cytotoxicity (cell survival rate)” value is “dose-dependent cytotoxicity”.
